In ChEMBL document CHEMBL1201862, “PubChem BioAssay data set” (2004):
Calls of active or inactive are those of the source.

Legend:
[1] = biological target: Intestinal-type alkaline phosphatase (Mus musculus, UniProt P24822); assay: PubChem AID 488785; type: functional
[2] = biological target: T1, DNA dC->dU-editing enzyme APOBEC-3G (Homo sapiens, UniProt Q9HC16); assay: SAR analysis of small molecule inhibitors of APOBEC3G DNA Deaminase via a fluorescence-based single-stranded DNA deaminase assay - Set 2.; type: functional; settings: read-out: IC50_Mean
[3] = biological target: Eukaryotic translation initiation factor 4E (Mus musculus, UniProt P63073); assay: eIF4E–eIF4G protein interaction inhibitors, dose response, biochemical, TR-FRET (AID 855); type: functional;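 further: potency for disrupting eIF4E binding to eIF4GI seen as loss of FRET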
[4] = biological target: T2, DNA dC->dU-editing enzyme APOBEC-3A (Homo sapiens, UniProt P31941); assay: SAR analysis of small molecule inhibitors of APOBEC3A DNA Deaminase via a fluorescence-based single-stranded DNA deaminase assay - Set 2.; type: functional; settings: read-out: IC50_Mean
[5] = biological target: T3, Small ubiquitin-related modifier 2 (Homo sapiens, UniProt P61956); assay: inhibitors of SUMO2 protein-protein interaction, dose response, selectivity assay for SUMO1 interaction inhibitor project, biochemical, FRET, human SUMO2, uHTS hits (AID 624384); type: functional; settings: read-out: IC50_Mean
[6] = biological target: Intestinal-type alkaline phosphatase (Homo sapiens, UniProt P09923); assay: activation of human intestinal alkaline phosphatase – biochemical, dose response (AID 488873); type: functional
[7] = biological target: T2, DNA dC->dU-editing enzyme APOBEC-3A; assay: SAR analysis of small molecule inhibitors of APOBEC3A DNA Deaminase via a fluorescence-based single-stranded DNA deaminase assay.; type: functional; settings: read-out: IC50_Mean
[8] = test system: HeLa; assay: HeLa cell cytotoxicity, dose response, cytotoxicity control, 24 h, cherry-picked samples (AID 504726); type: functional, cell-based; settings: Homo sapiens;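 further: potency for cytotoxicity as loss of luminescence signal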
[9] = biological target: T4, Histone-lysine N-methyltransferase NSD2 (Homo sapiens, UniProt O96028); type: biochemical
T4 sequence (O96028 whole entry): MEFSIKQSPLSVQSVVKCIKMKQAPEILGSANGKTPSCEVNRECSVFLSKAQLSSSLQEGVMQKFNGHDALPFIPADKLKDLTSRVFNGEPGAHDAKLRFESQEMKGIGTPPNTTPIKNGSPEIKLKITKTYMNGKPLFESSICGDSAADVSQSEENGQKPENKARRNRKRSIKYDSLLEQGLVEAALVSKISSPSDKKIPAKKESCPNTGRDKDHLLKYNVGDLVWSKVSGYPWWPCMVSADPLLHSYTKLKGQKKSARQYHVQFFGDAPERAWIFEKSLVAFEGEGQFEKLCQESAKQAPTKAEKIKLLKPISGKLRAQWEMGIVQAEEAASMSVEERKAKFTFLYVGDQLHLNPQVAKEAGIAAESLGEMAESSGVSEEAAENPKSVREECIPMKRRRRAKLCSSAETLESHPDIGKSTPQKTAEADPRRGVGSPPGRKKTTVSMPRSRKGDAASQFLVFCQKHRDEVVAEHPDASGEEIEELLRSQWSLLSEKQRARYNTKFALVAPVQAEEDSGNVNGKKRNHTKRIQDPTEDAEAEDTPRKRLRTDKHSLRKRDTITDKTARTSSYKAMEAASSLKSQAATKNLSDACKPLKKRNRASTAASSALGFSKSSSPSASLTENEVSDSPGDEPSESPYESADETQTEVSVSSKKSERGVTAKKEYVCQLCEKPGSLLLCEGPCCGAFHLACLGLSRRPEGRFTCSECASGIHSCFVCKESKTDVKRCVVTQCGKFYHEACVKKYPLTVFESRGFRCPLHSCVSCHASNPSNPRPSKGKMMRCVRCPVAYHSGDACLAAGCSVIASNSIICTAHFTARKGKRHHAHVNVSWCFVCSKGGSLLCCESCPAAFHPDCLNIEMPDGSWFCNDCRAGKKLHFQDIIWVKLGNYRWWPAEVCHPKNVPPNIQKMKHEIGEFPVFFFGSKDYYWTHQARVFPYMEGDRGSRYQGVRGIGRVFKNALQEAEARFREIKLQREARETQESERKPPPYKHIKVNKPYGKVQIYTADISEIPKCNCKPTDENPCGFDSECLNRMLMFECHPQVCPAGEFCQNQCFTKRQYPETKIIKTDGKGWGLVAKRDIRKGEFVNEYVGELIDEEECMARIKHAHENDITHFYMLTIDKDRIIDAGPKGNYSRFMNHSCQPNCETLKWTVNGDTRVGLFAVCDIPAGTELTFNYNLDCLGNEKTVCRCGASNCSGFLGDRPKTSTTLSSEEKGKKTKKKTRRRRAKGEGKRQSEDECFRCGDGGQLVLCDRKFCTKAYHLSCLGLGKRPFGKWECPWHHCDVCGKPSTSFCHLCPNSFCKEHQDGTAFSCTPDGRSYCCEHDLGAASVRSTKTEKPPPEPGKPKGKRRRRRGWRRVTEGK

[10] = biological target: ORF 73 (Human herpesvirus 8, UniProt O40947); assay: inhibitors of C-LANA binding to LBS DNA, dose response, biochemical, fluorescence polarization, cherry-picked samples (AID 504725); parameters: species or system Human gammaherpesvirus 8;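 further: fluorescence polarization of a labeled DNA duplex reporting LANA DNA binding; potency is for inhibitors that block LANA binding to the DNA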
[11] = biological target: T3, Small ubiquitin-related modifier 2; assay: SUMO2–SIM peptide binding inhibitors, dose response, selectivity assay for SUMO1 interaction inhibitor project, biochemical, fluorescence polarization, uHTS hits (AID 624385); type: functional; settings: read-out: IC50_Mean
[12] = biological target: T5, Small ubiquitin-related modifier 1 (Homo sapiens, UniProt P63165); assay: inhibitors of SUMO1 peptide binding, dose response, biochemical, fluorescence polarization, uHTS hits (AID 624382); type: functional; settings: read-out: IC50_Mean
[13] = biological target: T1, DNA dC->dU-editing enzyme APOBEC-3G; assay: APOBEC3G deaminase inhibitors, SAR follow-up, biochemical, fluorescence, single-stranded DNA substrate (AID 602136); type: functional; settings: read-out: IC50_Mean
[14] = biological target: Induced myeloid leukemia cell differentiation protein Mcl-1 (Homo sapiens, UniProt Q07820); type: functional
[15] = biological target: T6, Alkaline phosphatase, tissue-nonspecific isozyme (Homo sapiens, UniProt P05186); assay: TNAP enzyme inhibition by screening hits, dose response, selectivity assay for mouse IAP inhibitor project, biochemical, human TNAP, uHTS hits (AID 488906); type: functional
T6 sequence (P05186 whole entry): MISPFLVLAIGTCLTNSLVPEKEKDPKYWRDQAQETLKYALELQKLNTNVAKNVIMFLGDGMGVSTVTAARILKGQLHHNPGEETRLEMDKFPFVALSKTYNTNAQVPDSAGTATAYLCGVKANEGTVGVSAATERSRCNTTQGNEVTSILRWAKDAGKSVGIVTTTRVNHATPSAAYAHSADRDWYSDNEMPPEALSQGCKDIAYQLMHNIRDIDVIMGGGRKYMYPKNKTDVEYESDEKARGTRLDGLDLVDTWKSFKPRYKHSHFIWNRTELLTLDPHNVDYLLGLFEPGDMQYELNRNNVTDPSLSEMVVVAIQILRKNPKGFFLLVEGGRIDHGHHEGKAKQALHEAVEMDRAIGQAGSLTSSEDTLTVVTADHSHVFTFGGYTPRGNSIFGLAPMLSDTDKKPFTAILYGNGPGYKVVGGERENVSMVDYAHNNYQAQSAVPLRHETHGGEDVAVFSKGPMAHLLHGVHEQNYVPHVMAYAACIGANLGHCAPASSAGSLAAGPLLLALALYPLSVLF

[16] = biological target: Large T antigen (Simian virus 40, UniProt P03070); type: functional, Betapolyomavirus macacae;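 further: Confirmatory-stage PubChem screen for compounds that inhibit SV40 T antigen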
[17] = biological target: T5, Small ubiquitin-related modifier 1; assay: inhibitors of SUMO1 partner interactions, dose response, biochemical, FRET (AID 624383); type: functional; settings: read-out: IC50_Mean

T5 sequence (P63165 whole entry): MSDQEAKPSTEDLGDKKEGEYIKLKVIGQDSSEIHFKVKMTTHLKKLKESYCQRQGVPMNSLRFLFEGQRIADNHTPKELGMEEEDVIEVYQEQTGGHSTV
T2 sequence (P31941 whole entry): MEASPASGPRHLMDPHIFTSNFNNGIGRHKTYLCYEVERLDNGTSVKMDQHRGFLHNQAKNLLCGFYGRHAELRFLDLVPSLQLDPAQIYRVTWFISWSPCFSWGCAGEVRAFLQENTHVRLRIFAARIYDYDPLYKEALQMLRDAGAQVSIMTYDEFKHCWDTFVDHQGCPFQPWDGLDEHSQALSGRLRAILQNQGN
T3 sequence (P61956 whole entry): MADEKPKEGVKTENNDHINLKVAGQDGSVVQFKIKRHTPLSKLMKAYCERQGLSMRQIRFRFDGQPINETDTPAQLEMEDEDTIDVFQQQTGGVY
T1 sequence (Q9HC16 whole entry): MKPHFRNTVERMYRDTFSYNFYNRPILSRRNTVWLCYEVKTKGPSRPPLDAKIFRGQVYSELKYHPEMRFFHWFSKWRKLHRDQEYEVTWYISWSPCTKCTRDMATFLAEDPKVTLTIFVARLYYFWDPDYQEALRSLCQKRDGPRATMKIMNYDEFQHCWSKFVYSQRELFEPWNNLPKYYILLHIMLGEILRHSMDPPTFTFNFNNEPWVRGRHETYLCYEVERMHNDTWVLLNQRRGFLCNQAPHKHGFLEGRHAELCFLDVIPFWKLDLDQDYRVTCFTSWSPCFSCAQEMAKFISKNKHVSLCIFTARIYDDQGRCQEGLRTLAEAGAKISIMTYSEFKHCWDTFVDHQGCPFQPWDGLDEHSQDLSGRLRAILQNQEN
Chain of Intestinal-type alkaline phosphatase (Mus musculus, UniProt P24822) (P24822 whole entry): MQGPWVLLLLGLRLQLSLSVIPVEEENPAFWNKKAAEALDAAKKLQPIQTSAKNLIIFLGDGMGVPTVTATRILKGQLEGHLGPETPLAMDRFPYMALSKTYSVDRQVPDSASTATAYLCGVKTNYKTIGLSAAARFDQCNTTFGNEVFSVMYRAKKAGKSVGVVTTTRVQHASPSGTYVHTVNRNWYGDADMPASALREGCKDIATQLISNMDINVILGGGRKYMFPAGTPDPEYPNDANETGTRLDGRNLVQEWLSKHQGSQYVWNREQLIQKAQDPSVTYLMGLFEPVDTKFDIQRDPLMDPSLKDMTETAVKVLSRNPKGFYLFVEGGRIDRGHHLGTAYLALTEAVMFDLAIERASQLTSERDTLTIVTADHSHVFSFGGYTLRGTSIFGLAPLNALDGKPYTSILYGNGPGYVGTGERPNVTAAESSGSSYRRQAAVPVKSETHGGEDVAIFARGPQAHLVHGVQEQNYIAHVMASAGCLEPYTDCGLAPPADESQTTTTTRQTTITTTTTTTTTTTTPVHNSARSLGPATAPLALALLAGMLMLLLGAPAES
Chain of Large T antigen (P03070 whole entry): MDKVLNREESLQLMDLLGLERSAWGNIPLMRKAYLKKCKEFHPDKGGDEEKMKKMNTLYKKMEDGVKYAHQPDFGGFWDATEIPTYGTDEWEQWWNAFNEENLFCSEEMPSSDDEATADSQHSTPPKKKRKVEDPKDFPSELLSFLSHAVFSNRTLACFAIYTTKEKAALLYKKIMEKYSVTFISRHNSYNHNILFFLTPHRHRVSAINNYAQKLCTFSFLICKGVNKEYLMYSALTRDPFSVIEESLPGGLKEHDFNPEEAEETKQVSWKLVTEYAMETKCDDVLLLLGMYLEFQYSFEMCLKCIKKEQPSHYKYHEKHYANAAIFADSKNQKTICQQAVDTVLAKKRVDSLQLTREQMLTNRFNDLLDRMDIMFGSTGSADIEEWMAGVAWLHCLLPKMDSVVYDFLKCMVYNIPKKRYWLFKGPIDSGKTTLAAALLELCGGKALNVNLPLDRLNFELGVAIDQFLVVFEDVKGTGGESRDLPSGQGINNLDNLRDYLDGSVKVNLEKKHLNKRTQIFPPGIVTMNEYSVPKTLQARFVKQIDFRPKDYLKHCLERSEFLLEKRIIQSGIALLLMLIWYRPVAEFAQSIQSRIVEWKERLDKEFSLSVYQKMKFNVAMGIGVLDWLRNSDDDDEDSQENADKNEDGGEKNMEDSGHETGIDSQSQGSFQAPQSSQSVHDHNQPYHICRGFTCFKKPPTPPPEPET
Chain of Intestinal-type alkaline phosphatase (Homo sapiens, UniProt P09923) (P09923 whole entry): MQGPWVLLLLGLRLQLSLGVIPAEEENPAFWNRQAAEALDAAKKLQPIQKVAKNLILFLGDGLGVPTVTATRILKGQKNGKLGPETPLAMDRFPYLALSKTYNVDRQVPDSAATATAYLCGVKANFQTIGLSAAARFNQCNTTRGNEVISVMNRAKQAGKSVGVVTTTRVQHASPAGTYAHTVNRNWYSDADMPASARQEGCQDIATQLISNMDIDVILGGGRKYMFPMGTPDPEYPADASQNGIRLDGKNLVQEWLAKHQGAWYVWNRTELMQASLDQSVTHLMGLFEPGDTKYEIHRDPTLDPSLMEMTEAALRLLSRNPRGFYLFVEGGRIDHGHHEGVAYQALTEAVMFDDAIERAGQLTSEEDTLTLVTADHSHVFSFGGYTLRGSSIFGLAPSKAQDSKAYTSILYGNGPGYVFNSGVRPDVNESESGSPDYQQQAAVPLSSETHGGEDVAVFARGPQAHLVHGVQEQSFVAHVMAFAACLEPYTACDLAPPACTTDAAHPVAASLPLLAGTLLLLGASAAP
Chain of ORF 73 (O40947 whole entry): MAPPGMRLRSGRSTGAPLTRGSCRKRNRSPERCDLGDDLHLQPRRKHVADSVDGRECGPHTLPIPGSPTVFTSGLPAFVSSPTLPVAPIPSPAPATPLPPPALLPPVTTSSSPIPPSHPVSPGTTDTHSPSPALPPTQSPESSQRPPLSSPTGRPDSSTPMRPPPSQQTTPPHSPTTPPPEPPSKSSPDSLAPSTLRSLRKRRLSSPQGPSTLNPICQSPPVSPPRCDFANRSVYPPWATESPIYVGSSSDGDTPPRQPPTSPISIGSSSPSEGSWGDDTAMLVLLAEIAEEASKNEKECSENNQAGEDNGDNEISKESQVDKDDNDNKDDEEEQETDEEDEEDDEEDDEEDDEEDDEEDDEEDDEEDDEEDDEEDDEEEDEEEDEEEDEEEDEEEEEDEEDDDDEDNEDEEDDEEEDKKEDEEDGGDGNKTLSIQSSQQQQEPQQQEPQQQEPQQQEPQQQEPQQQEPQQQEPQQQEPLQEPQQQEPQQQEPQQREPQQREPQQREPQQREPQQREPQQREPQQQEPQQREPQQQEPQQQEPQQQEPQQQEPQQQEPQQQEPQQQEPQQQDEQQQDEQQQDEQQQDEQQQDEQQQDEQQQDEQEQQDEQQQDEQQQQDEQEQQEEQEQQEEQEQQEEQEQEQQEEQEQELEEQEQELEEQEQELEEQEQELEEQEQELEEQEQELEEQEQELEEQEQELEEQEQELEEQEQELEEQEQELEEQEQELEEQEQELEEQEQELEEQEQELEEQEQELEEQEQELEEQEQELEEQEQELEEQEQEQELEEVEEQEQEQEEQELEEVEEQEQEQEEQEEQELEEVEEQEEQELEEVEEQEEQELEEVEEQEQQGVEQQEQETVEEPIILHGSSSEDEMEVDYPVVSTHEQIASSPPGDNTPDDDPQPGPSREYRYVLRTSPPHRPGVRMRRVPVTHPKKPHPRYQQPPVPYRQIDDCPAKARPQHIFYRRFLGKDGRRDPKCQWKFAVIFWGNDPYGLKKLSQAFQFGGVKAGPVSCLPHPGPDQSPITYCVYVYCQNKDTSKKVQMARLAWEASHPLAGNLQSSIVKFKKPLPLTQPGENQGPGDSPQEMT
Chain of Induced myeloid leukemia cell differentiation protein Mcl-1 (Q07820 whole entry): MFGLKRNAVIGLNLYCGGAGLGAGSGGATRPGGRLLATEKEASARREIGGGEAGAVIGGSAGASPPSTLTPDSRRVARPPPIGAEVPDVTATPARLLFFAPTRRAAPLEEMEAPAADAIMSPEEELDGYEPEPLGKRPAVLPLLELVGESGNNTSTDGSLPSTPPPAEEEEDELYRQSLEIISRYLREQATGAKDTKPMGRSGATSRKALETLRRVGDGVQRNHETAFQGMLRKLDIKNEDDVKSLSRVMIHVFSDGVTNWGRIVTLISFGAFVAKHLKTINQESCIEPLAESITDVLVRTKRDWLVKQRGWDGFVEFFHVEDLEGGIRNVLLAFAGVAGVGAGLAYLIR
Chain of Eukaryotic translation initiation factor 4E (P63073 whole entry): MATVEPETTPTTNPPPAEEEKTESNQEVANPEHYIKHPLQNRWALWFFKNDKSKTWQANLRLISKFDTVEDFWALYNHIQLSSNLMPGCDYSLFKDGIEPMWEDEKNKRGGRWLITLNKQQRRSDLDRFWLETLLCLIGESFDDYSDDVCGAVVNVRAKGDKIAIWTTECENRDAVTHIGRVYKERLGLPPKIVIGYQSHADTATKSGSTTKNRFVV

CC(=O)c1ccc2c(c1)C1C=CCC1C(C(=O)O)N2 (configuration not stated)
IC50 [1]: 6.61 µM (active)
IC50 [2]: 989 nM (active)
IC50 [3]: 50 µM (inactive)
IC50 [4]: 2.32 µM (active)
IC50 [5]: 1.45 µM (active)
EC50 [6]: > 100 µM (inactive)
IC50 [7]: 5.37 µM (active)
AC50 [8]: 277 µM (active)
AC50 [9]: 1.45 µM (active)
AC50 [10]: 15 µM (active)
IC50 [11]: 4.87 µM (active)
IC50 [12]: 10.9 µM (active)
IC50 [13]: 5.03 µM (active)
IC50 [14]: 5.11 µM (active)
IC50 [15]: 78.5 µM (active)
IC50 [16]: 50.6 µM (active)
IC50 [17]: 4.9 µM (active)
